Consider 13 compounds from patent publication EP4806891A1 (Kangbaida (Sichuan) Biotechnology Co., Ltd., priority 2023, dated 2025).

One assay has as its target T1, HEK-Blue-hTLR7 cells (Homo sapiens, UniProt Q9NYK1).
T1 construct: expressed in transfected cells; host or cells: HEK-Blue-hTLR7 cells (HEK293-derived reporter line)
T1 sequence (Q9NYK1 27-1049): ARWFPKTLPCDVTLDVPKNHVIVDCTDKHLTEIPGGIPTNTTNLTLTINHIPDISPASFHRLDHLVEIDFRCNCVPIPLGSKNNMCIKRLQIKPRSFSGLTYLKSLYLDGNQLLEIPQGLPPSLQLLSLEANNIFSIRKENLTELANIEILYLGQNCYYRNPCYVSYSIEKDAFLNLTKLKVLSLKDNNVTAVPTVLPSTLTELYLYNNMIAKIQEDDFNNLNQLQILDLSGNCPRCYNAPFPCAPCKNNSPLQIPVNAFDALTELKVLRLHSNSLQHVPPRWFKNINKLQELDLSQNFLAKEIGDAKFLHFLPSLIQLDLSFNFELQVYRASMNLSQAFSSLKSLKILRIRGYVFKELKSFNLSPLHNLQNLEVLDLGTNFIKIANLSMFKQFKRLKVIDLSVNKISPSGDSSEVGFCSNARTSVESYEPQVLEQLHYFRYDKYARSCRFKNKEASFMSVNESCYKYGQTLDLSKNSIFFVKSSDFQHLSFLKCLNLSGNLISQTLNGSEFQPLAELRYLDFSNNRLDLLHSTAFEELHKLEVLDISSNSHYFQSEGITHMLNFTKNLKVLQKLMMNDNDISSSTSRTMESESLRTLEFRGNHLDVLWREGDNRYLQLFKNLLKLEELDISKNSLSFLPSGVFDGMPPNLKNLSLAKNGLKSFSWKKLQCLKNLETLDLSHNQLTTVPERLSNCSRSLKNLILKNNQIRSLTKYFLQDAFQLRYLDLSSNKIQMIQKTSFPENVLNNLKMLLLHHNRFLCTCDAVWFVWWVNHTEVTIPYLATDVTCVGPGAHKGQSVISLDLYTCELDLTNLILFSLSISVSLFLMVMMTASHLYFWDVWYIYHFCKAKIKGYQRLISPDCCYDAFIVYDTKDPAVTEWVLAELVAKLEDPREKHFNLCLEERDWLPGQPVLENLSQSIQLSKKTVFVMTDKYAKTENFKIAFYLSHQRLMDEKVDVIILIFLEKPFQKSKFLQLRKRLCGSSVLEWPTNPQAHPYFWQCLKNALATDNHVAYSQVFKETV
Kind of assay: HEK-Blue-hTLR7 cell inhibition assay. Format: cell-based. The conditions noted are these: R848 0.8 µM, 16 h, OD 620 nm, read-out: TLR7 IC50. Summed up: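 Cells were pre-incubated 4 h, then co-treated 16 h at 37 °C with compound (10 doses, 0.5–10000 nM final) plus R848 (0.8 µM for TLR7, 3 µM for TLR8) or ODN2006 (1 µM, TLR9). Reporter OD620 gave inhibition relative to DMSO blank and agonist-only controls; IC50 came from curve fitting.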

A further assay relates to IL-6. The assay can be described thus: In vivo inhibition assay of IL-6. The conditions noted are these: Mus musculus, ip; mice, test compound 1 mg/kg by gavage, 25 µg R848 intraperitoneally 1 h later, serum IL-6 2 h later; read-out: IL-6 inhibition rate (intraperitoneal injection after 1 h). Also on record: species or system C57BL/6 female mice. The procedure: In vivo inhibition assay of IL-6
Experimental materials: Preparation of compound solutions: R848 was prepared with pure water (sterilized), with a final concentration of 25 µg/100 µL; the test compound was prepared with sodium citrate buffer at pH = 3, with a final concentration of 0.1 mg/mL.
Experimental animals: C57BL/6 female mice were purchased from GemPharmatech, aged 6-8 weeks.
Experimental methods: C57BL/6 female mice were randomly divided into a blank group, control group, and experimental group, with 8 in each group.
Blank group: Blood was collected from the mice after 12 h of fasting.
Control group: The mice were administered sodium citrate buffer at pH = 3 by gavage after 12 hours of fasting, and the remaining procedures were consistent with those of the experimental group.
Experimental group: After fasting for 12 h, the mice were administered with the test compound (1 mg/kg) by gavage, followed by an intraperitoneal injection of 25 µg R848 (purchased from MCE) 1 h later; 2 h later, the eyeballs were removed for blood collection, the serum was allowed to stand at room temperature for 30 min, then centrifuged for 10 min (3000 rpm), the supernatant was collected, and the serum IL-6 concentration was measured using an IL-6 ELISA kit. The IL-6 inhibition rate was calculated based on the serum IL-6 concentrations of the control and experimental groups. Calculation formula: inhibition rate = (C2-C3)/(C2-C1)×100%. • C1: serum IL-6 concentration of the blank group; • C2: serum IL-6 concentration of the control group; • C3: serum IL-6 concentration of the experimental group.
Four additional groups of experiments were performed separately according to the above experimental procedures, and the differences between these four groups and the above experiment were respectively: "25 µg R848 (purchased from MCE) was intraperitoneally injected after 4 h", "25 µg R848 (purchased from MCE) was intraperitoneally injected after 8 h", "25 µg R848 (purchased from MCE) was intraperitoneally injected after 16 h", and "25 µg R848 (purchased from MCE) was intraperitoneally injected after 24 h". Table 2: In vivo inhibition assay of IL-6

In the case of `CN1CC(Cc2nnc([C@]34CN(c5ccc(C#N)n6ncc(F)c56)C[C@@]3(C(F)(F)F)C4)o2)C1` [Compound 30, 3-fluoro-4-((1S,5R)-1-(5-((1-methylazetidin-3-yl)methyl)-1,3,4-oxadiazol-2-yl)-5-(trifluoromethyl)-3-azabicyclo[3.1.0]hexan-3-yl)pyrazolo[1,5-a]pyridine-7-carbonitrile], the 50% inhibitory concentration (IC50) at HEK-Blue-hTLR7 cells was under 100 nM. For the same compound, in the assay on IL-6, the inhibition at 1 mg/kg is over 90%.
Taken in the same sequence, the figures for `CN1CCC(c2nnc([C@]34CN(c5ccc(C#N)n6ncc(F)c56)C[C@@]3(C(F)(F)F)C4)o2)CC1` [Compound 57, 3-fluoro-4-((1S,5R)-1-(5-(1-methylpiperidin-4-yl)-1,3,4-oxadiazol-2-yl)-5-(trifluoromethyl)-3-azabicyclo[3.1.0]hexan-3-yl)pyrazolo[1,5-a]pyridine-7-carbonitrile] were under 100 nM and over 90%.
Taken in the same sequence, the figures for `CN1CCC(c2nnc([C@]34CN(c5ccc(C#N)n6nccc56)C[C@@]3(C(F)(F)F)C4)o2)CC1` [Compound 59, 4-((1S,5R)-1-(5-(1-methylpiperidin-4-yl)-1,3,4-oxadiazol-2-yl)-5-(trifluoromethyl)-3-azabicyclo[3.1.0]hexan-3-yl)pyrazolo[1,5-a]pyridine-7-carbonitrile] were under 100 nM and over 80%.
Taken in the same sequence, the figures for `CN1CCC(c2nnc([C@]34CN(c5ccc(OC(F)(F)F)c6ncccc56)C[C@@]3(C(F)(F)F)C4)o2)CC1` [Compound 64, 2-(1-methylpiperidin-4-yl)-5-((1S,5R)-5-(trifluoromethyl)-3-(8-(trifluoromethoxy)quinolin-5-yl)-3-azabicyclo[3.1.0]hexan-1-yl)-1,3,4-oxadiazole] were under 100 nM and over 70%.
As for `CN1CCC(c2nnc([C@]34CN(c5ccc(C(F)(F)F)n6nccc56)C[C@@]3(C(F)(F)F)C4)o2)CC1` [Compound 87, 2-(1-methylpiperidin-4-yl)-5-((1S,5R)-5-(trifluoromethyl)-3-(7-(trifluoromethyl)pyrazolo[1,5-a]pyridin-4-yl)-3-azabicyclo[3.1.0]hexan-1-yl)-1,3,4-oxadiazole], the IC50 at HEK-Blue-hTLR7 cells was under 100 nM.
As for `CN1CCC(F)(c2nnc([C@]34CN(c5ccc(C#N)n6nccc56)C[C@@]3(C(F)(F)F)C4)o2)CC1` [Compound 90, 4-((1S,5R)-1-(5-(4-fluoro-1-methylpiperidin-4-yl)-1,3,4-oxadiazol-2-yl)-5-(trifluoromethyl)-3-azabicyclo[3.1.0]hexan-3-yl)pyrazolo[1,5-a]pyridine-7-carbonitrile], the 50% inhibitory concentration (IC50) at HEK-Blue-hTLR7 cells is under 100 nM.
On the same count and under the same terms, then `CN1CCC(c2nnc([C@]34CN(c5ccc(C#N)c6ncnn56)C[C@@]3(C(F)(F)F)C4)o2)CC1` [Compound 91, 5-((1S,5R)-1-(5-(1-methylpiperidin-4-yl)-1,3,4-oxadiazol-2-yl)-5-(trifluoromethyl)-3-azabicyclo[3.1.0]hexan-3-yl)-[1,2,4]triazolo[1,5-a]pyridine-8-carbonitrile], with under 100 nM.
The same measure, in the same setting: then `CN1CCC(Oc2nnc([C@]34CN(c5ccc(C(F)(F)F)c6ncccc56)C[C@@]3(C(F)(F)F)C4)o2)CC1` [Compound 92, 2-((1-methylpiperidin-4-yl)oxy)-5-((1S,5R)-5-(trifluoromethyl)-3-(8-(trifluoromethyl)quinolin-5-yl)-3-azabicyclo[3.1.0]hexan-1-yl)-1,3,4-oxadiazole], with under 100 nM.
Still for that read-out and setting: then `CN1CCC(Oc2nnc([C@]34CN(c5ccc(OC(F)(F)F)c6ncccc56)C[C@@]3(C(F)(F)F)C4)o2)CC1` [Compound 93, 2-((1-methylpiperidin-4-yl)oxy)-5-((1S,5R)-5-(trifluoromethyl)-3-(8-(trifluoromethoxy)quinolin-5-yl)-3-azabicyclo[3.1.0]hexan-1-yl)-1,3,4-oxadiazole], with under 1000 nM; and `CN1CCC(O)(c2nnc([C@]34CN(c5ccc(C(F)(F)F)c6ncccc56)C[C@@]3(C(F)(F)F)C4)o2)CC1` [Compound 94, 1-methyl-4-(5-((1S,5R)-5-(trifluoromethyl)-3-(8-(trifluoromethyl)quinolin-5-yl)-3-azabicyclo[3.1.0]hexan-1-yl)-1,3,4-oxadiazol-2-yl)piperidin-4-ol], with under 100 nM.
Turning to `CN1CC(Cc2nnc([C@]34CN(c5ccc(C(F)(F)F)c6ncccc56)C[C@@]3(C(F)(F)F)C4)o2)C1` [Compound 95, 2-((1-methylazetidin-3-yl)methyl)-5-((1S,5R)-5-(trifluoromethyl)-3-(8-(trifluoromethyl)quinolin-5-yl)-3-azabicyclo[3.1.0]hexan-1-yl)-1,3,4-oxadiazole], the 50% inhibitory concentration (IC50) on HEK-Blue-hTLR7 cells was under 100 nM. Further, in the assay on IL-6, the inhibition at 1 mg/kg is over 90%.
As for `FC(F)(F)Oc1ccc(N2C[C@]3(c4nnc(C5(F)CCNCC5)o4)C[C@]3(C(F)(F)F)C2)c2cccnc12` [Compound 96, 2-(4-fluoropiperidin-4-yl)-5-((1S,5R)-3-(8-(trifluoromethoxy)quinolin-5-yl)-5-(trifluoromethyl)-3-azabicyclo[3.1.0]hexan-1-yl)-1,3,4-oxadiazole], the concentration for half-maximal inhibition (IC50) on HEK-Blue-hTLR7 cells is under 100 nM.
With `CN1CCC(Oc2nnc([C@]34CN(c5ccc(C#N)c6ncnn56)C[C@@]3(C(F)(F)F)C4)o2)CC1` [Compound 97, 5-((1S,5R)-1-(5-((1-methylpiperidin-4-yl)oxy)-1,3,4-oxadiazol-2-yl)-5-(trifluoromethyl)-3-azabicyclo[3.1.0]hexan-3-yl)-[1,2,4]triazolo[1,5-a]pyridine-8-carbonitrile], the concentration for half-maximal inhibition (IC50) on HEK-Blue-hTLR7 cells is under 100 nM. Besides, in the assay with IL-6, the inhibition at 1 mg/kg was over 90%.
